Values quoted from earlier work in US6858402B2 (The Regents of the University of California, priority 1996, dated 2005).

Details: Bauditz et al. (1997); cited from earlier work

CC(=O)CCCCn1c(=O)c2c(ncn2C)n(C)c1=O [oxpentifylline]
course of Crohn's disease: did not alter the course
